Experiments:
[1] = tested on: abdominal pain suggestive of intestinal ischemia; assay: Laparoscopic cholecystectomy, abdominal pain suggestive of intestinal ischemia (Example III); assay type: in vivo, human; settings: person, 100 ppm added to the insufflating gas one hour into the procedure
Description: A person undergoes laparoscopic cholecystectomy.

[2] = tested on: blood-flow in liver; assay: Liver blood-flow by laser Doppler flow method in anesthetized pigs during and after carbon dioxide insufflation (Example I); assay type: in vivo; settings: adult pigs
Procedure: Ten adult pigs were anesthetized at time zero using halothane anesthetic. A small cut was made in the abdomen to allow access inside the peritoneum. In the case of one group of five pigs, denoted group A, an insufflating needle was inserted, and starting at time 1 hour and 48 minutes, an insufflating gas consisting of carbon dioxide was delivered into the abdominal cavity to standard operating pressure (of 15 mm Hg) and the insufflating gas was maintained in the abdominal cavity for 1 hour whereupon the insufflating gas was removed by suction. In the case of another group of five pigs, denoted group B, an insufflating needle was inserted, and starting at time 1 hour and 35 minutes, an insufflating gas consisting of carbon dioxide and 100 ppm ethyl nitrite was delivered to the abdominal cavity to standard operating pressure and the insufflating gas was maintained in the abdominal cavity for about 1⅕ hour whereupon the insufflating gas was removed by suction. In both cases, blood-flow in liver was monitored by a laser Doppler flow method (a standard method where […] are projected at flowing blood and bounce back) whereby blood-flow is determined starting at time 5 minutes after time zero in the case of group A, and starting at about time 20 minutes after time zero in the case of group B and continuing until 2 hours after insufflating gas was removed. In FIGS. 1 and 2, the Doppler Flow Units are arbitrary units. In FIG. 3, the term “Relative Flow” means relative blood-flow in liver compared to baseline. […] FIG. 1 illustrates that carbon dioxide pneumoperitoneum produces a decrease in blood-flow to the liver, which was sustained even after the procedure was completed.

[3] = tested on: fetal PO2; assay: Fetal PO2 during laparoscopic evaluation of a pregnant female (Example II); assay type: in vivo, human; settings: 32 weeks pregnant female, 100 ppm added to carbon dioxide insufflating gas; fetal PO2 before addition 7 mmHg, electrode on the head
Procedure: A person, 32 weeks pregnant, undergoes laparoscopic evaluation for right lower quadrant pain. Thirty minutes into the procedure, fetal PO2, measured by an electrode placed on the head, is 7 mmHg. 100 ppm ethyl nitrite is added to the carbon dioxide insufflating gas, and the fetal PO2 increases to 25 mm Hg.

[4] = tested on: renal perfusion; assay: Laparoscopy in a person with renal artery stenosis, renal perfusion (Example IV); assay type: in vivo, human; settings: 100 ppm added to insufflating gas
Description: A person with renal artery stenosis undergoes laparoscopy appendectomy and diagnostic evaluation of a renal mass.

[5] = tested on: blood pressure, pulmonary and renal functions; assay: Laparoscopic appendectomy, agent nebulized into the abdominal cavity (Example V); assay type: in vivo, human; settings: person, 3 cc of 100 micromolar nebulized into the abdominal cavity
Description: A person undergoes laparoscopic appendectomy. Because of concerns of impaired renal function, pulmonary function and hypertension, nitroglycerin (3 cc of 100 micromolar) is nebulized into the abdominal cavity. Blood pressure increases are prevented and pulmonary and renal functions are kept stable.

SMILES	abdominal pain [1]	more blood-flow in liver than with carbon dioxide only, 2 hours post-insufflation (FIG. 3) ([2]; 100 ppm ethyl nitrite in carbon dioxide, 2 hours after insufflating gas is removed)	more blood-flow in liver than with carbon dioxide only, during insufflation (FIG. 3) ([2]; 100 ppm ethyl nitrite in carbon dioxide, average values while insufflating gas is present)	effect on carbon dioxide induced decline in liver perfusion (FIG. 2) ([2]; group B, carbon dioxide with 100 ppm ethyl nitrite, 15 mm Hg, laser Doppler flow)	fetal PO2 after addition of agent [3]	decrease in blood-flow (renal perfusion) [4]	blood pressure increases [5]	pulmonary function [5]	renal function [5]
CCON=O [ethyl nitrite]	resolution of abdominal pain	about 40%	about 70%	protects against carbon dioxide induced decline in liver perfusion	25 mm Hg	protects against decrease in blood-flow	–	–	–
O=[N+]([O-])OCC(CO[N+](=O)[O-])O[N+](=O)[O-] [nitroglycerin]	–	–	–	–	–	–	prevented	kept stable	kept stable

— US20100087547A1, “Use of a Blood-Flow Decrease Preventing Agent in Conjunction With Insufflating Gas” (priority 2001, published 2010)
